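Where inhibition never reached the appropriate level, the endpoint shown equals the highest concentration tested. Otherwise, values were interpolated linearly from a five-concentration, 48-hour dose response in 96-well plates. The concentration for full growth arrest is given as TGI.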
Assays:
Assay in all cases: NCI-60 cell line screen, 48 h
NCI-H522 lung = tested on: NCI-H522 lung
T-47D breast = tested on: T-47D breast
BT-549 breast = tested on: BT-549 breast
PC-3 prostate = tested on: PC-3 prostate
MCF7 breast = tested on: MCF7 breast
SW-620 colon = tested on: SW-620 colon
TK-10 renal = tested on: TK-10 renal
ACHN renal = tested on: ACHN renal
MOLT-4 leukemia = tested on: MOLT-4 leukemia
A549 NSCLC = tested on: A549 NSCLC
CCRF-CEM leukemia = tested on: CCRF-CEM leukemia
HOP-62 NSCLC = tested on: HOP-62 NSCLC
OVCAR-5 ovarian = tested on: OVCAR-5 ovarian
SNB-19 CNS = tested on: SNB-19 CNS
NCI-H226 lung = tested on: NCI-H226 lung
OVCAR-8 ovarian = tested on: OVCAR-8 ovarian
NCI-H460 lung = tested on: NCI-H460 lung
UACC-257 melanoma = tested on: UACC-257 melanoma
RPMI-8226 leukemia = tested on: RPMI-8226 leukemia
HL-60(TB) leukemia = tested on: HL-60(TB) leukemia
IGROV1 ovarian = tested on: IGROV1 ovarian
SK-MEL-5 melanoma = tested on: SK-MEL-5 melanoma
SN12C renal = tested on: SN12C renal
HT29 colon = tested on: HT29 colon
MDA-MB-435 = tested on: MDA-MB-435
HCC-2998 colon = tested on: HCC-2998 colon
786-0 renal = tested on: 786-0 renal
UO-31 renal = tested on: UO-31 renal
K-562 leukemia = tested on: K-562 leukemia
MDA-N = tested on: MDA-N
DU-145 prostate = tested on: DU-145 prostate
OVCAR-3 ovarian = tested on: OVCAR-3 ovarian
MALME-3M melanoma = tested on: MALME-3M melanoma
HCT-15 colon = tested on: HCT-15 colon
LOX IMVI melanoma = tested on: LOX IMVI melanoma
SK-MEL-2 melanoma = tested on: SK-MEL-2 melanoma
NCI-H23 lung = tested on: NCI-H23 lung
HCT-116 colon = tested on: HCT-116 colon
UACC-62 melanoma = tested on: UACC-62 melanoma
SR leukemia = tested on: SR leukemia
MDA-MB-231 breast = tested on: MDA-MB-231 breast
U251 CNS = tested on: U251 CNS
OVCAR-4 ovarian = tested on: OVCAR-4 ovarian
A498 renal = tested on: A498 renal
HS 578T breast = tested on: HS 578T breast
KM12 colon = tested on: KM12 colon
COLO 205 colon = tested on: COLO 205 colon
HOP-92 NSCLC = tested on: HOP-92 NSCLC
SF-295 CNS = tested on: SF-295 CNS
CAKI-1 renal = tested on: CAKI-1 renal
SNB-75 CNS = tested on: SNB-75 CNS
M14 melanoma = tested on: M14 melanoma
RXF 393 renal = tested on: RXF 393 renal
SK-MEL-28 melanoma = tested on: SK-MEL-28 melanoma
SF-539 CNS = tested on: SF-539 CNS
SK-OV-3 ovarian = tested on: SK-OV-3 ovarian
NCI/ADR-RES ovarian = tested on: NCI/ADR-RES ovarian
SF-268 CNS = tested on: SF-268 CNS

Which TGI (NCI-H522 lung) does the source give for CC(C)CC(NC(=O)OCc1ccccc1)C(=O)NCCCCC(N)C(=O)NC(CCCCNC(=O)C(CC(C)C)NC(=O)OCc1ccccc1)C(=O)NC(CCCCNC(=O)C(CC(C)C)NC(=O)OCc1ccccc1)C(=O)NC(CCCCNC(=O)C(CC(C)C)NC(=O)OCc1ccccc1)C(=O)NC(CCCCNC(=O)C(CC(C)C)NC(=O)OCc1ccccc1)C(=O)NC(CCCCNC(=O)C(CC(C)C)NC(=O)OCc1ccccc1)C(=O)O (configuration not stated) here?
The TGI was over 100 µM.

What about the TGI (T-47D breast) of the same compound?
Its TGI is over 100 µM.

And the TGI (BT-549 breast)?
The TGI was over 100 µM.

What about the TGI (PC-3 prostate) of the same compound?
The TGI was over 100 µM.

What about the TGI (MCF7 breast) of the same compound?
Its TGI is over 100 µM.

And the TGI (SW-620 colon)?
Its TGI is over 100 µM.

What about the TGI (TK-10 renal) of the same compound?
Its TGI is over 100 µM.

And the TGI (ACHN renal)?
The TGI was over 100 µM.

And the TGI (MOLT-4 leukemia)?
Its TGI is over 100 µM.

And the TGI (A549 NSCLC)?
The TGI was over 100 µM.

And the TGI (CCRF-CEM leukemia)?
Its TGI is over 100 µM.

And the TGI (HOP-62 NSCLC)?
The TGI was over 100 µM.

What about the TGI (OVCAR-5 ovarian) of the same compound?
The TGI was over 100 µM.

What about the TGI (SNB-19 CNS) of the same compound?
Its TGI is over 100 µM.

And the TGI (NCI-H226 lung)?
Its TGI is over 100 µM.

And the TGI (OVCAR-8 ovarian)?
The TGI was over 100 µM.

What about the TGI (NCI-H460 lung) of the same compound?
Its TGI is over 100 µM.

And the TGI (UACC-257 melanoma)?
The TGI was over 100 µM.

And the TGI (RPMI-8226 leukemia)?
The TGI was over 100 µM.

And the TGI (HL-60(TB) leukemia)?
The TGI was over 100 µM.

What about the TGI (IGROV1 ovarian) of the same compound?
The TGI was over 100 µM.

And the TGI (SK-MEL-5 melanoma)?
The TGI was over 100 µM.

And the TGI (SN12C renal)?
Its TGI is over 100 µM.

And the TGI (HT29 colon)?
Its TGI is over 100 µM.

And the TGI (MDA-MB-435)?
Its TGI is over 100 µM.

And the TGI (HCC-2998 colon)?
The TGI was over 100 µM.

What about the TGI (786-0 renal) of the same compound?
Its TGI is over 100 µM.

What about the TGI (UO-31 renal) of the same compound?
Its TGI is over 100 µM.

And the TGI (K-562 leukemia)?
Its TGI is over 100 µM.

And the TGI (MDA-N)?
Its TGI is over 100 µM.

And the TGI (DU-145 prostate)?
The TGI was over 100 µM.

What about the TGI (OVCAR-3 ovarian) of the same compound?
Its TGI is over 100 µM.

And the TGI (MALME-3M melanoma)?
Its TGI is over 100 µM.

What about the TGI (HCT-15 colon) of the same compound?
The TGI was over 100 µM.

What about the TGI (LOX IMVI melanoma) of the same compound?
Its TGI is over 100 µM.

And the TGI (SK-MEL-2 melanoma)?
Its TGI is over 100 µM.

What about the TGI (NCI-H23 lung) of the same compound?
The TGI was over 100 µM.

And the TGI (HCT-116 colon)?
Its TGI is over 100 µM.

What about the TGI (UACC-62 melanoma) of the same compound?
The TGI was over 100 µM.

What about the TGI (SR leukemia) of the same compound?
Its TGI is over 100 µM.

What about the TGI (MDA-MB-231 breast) of the same compound?
The TGI was over 100 µM.

And the TGI (U251 CNS)?
Its TGI is over 100 µM.

And the TGI (OVCAR-4 ovarian)?
Its TGI is over 100 µM.

What about the TGI (A498 renal) of the same compound?
Its TGI is over 100 µM.

What does the source list for CCOC(=O)c1c(-c2ccc(Cl)cc2)c(C#N)c(=S)n(C2OC(CO)C(O)C(O)C2O)c1-c1ccccc1 (configuration not stated)?
TGI (HS 578T breast): 58.6 µM; TGI (T-47D breast): 54.4 µM; TGI (KM12 colon): > 100 µM; TGI (COLO 205 colon): 80.9 µM; TGI (HOP-92 NSCLC): 42.6 µM; TGI (BT-549 breast): 61.3 µM; TGI (PC-3 prostate): 50.4 µM; TGI (MCF7 breast): 50.5 µM; TGI (SW-620 colon): 46.7 µM; TGI (TK-10 renal): 84 µM; TGI (ACHN renal): > 100 µM; TGI (SF-295 CNS): 40.3 µM; TGI (MOLT-4 leukemia): 46.7 µM; TGI (A549 NSCLC): > 100 µM; TGI (CCRF-CEM leukemia): 53.9 µM; TGI (CAKI-1 renal): 82.6 µM; TGI (HOP-62 NSCLC): 36 µM; TGI (OVCAR-5 ovarian): 40.8 µM; TGI (SNB-75 CNS): 87.3 µM; TGI (SNB-19 CNS): 52.4 µM; TGI (M14 melanoma): 37.6 µM; TGI (NCI-H460 lung): 87.5 µM; TGI (UACC-257 melanoma): 62.9 µM; TGI (RPMI-8226 leukemia): > 100 µM; TGI (IGROV1 ovarian): > 100 µM; TGI (RXF 393 renal): 47.1 µM; TGI (SK-MEL-5 melanoma): 29.3 µM; TGI (SN12C renal): > 100 µM; TGI (HT29 colon): 36.2 µM; TGI (MDA-MB-435): 48.6 µM; TGI (HCC-2998 colon): 81.9 µM; TGI (786-0 renal): 75.1 µM; TGI (SK-MEL-28 melanoma): 38.7 µM; TGI (UO-31 renal): > 100 µM; TGI (SF-539 CNS): 35 µM; TGI (K-562 leukemia): 70.9 µM; TGI (MDA-N): 49.9 µM; TGI (DU-145 prostate): > 100 µM; TGI (OVCAR-3 ovarian): 37.9 µM; TGI (MALME-3M melanoma): > 100 µM; TGI (HCT-15 colon): 85.6 µM; TGI (LOX IMVI melanoma): 33.5 µM; TGI (SK-MEL-2 melanoma): 50.2 µM; TGI (SK-OV-3 ovarian): 96.2 µM; TGI (NCI-H23 lung): 72.7 µM; TGI (HCT-116 colon): 35.3 µM; TGI (NCI/ADR-RES ovarian): > 100 µM; TGI (UACC-62 melanoma): 38.2 µM; TGI (SR leukemia): > 100 µM; TGI (MDA-MB-231 breast): 75.9 µM; TGI (U251 CNS): 32 µM; TGI (OVCAR-4 ovarian): > 100 µM; TGI (SF-268 CNS): 55.9 µM

Reference: PubChem BioAssay (NCI)
